Measured values: ChEMBL document CHEMBL1770097, “Non-competitive and selective dipeptidyl peptidase IV inhibitors with phenethylphenylphthalimide skeleton derived from thalidomide-related α-glucosidase inhibitors and liver X receptor antagonists” (Bioorg Med Chem Lett, 2011)
Activity calls are given as the source filed them. The calls are words filed in the database; no cut-off is given here.

Experiments:
Dipeptidyl peptidase 4 [1] = target: T1, Dipeptidyl peptidase 4 (Homo sapiens, UniProt P27487); test: Inhibition of DPP4 at 10 uM assessed as […] release after 1 hr relative to control
Target sequence in this assay (P27487 whole entry, looked up): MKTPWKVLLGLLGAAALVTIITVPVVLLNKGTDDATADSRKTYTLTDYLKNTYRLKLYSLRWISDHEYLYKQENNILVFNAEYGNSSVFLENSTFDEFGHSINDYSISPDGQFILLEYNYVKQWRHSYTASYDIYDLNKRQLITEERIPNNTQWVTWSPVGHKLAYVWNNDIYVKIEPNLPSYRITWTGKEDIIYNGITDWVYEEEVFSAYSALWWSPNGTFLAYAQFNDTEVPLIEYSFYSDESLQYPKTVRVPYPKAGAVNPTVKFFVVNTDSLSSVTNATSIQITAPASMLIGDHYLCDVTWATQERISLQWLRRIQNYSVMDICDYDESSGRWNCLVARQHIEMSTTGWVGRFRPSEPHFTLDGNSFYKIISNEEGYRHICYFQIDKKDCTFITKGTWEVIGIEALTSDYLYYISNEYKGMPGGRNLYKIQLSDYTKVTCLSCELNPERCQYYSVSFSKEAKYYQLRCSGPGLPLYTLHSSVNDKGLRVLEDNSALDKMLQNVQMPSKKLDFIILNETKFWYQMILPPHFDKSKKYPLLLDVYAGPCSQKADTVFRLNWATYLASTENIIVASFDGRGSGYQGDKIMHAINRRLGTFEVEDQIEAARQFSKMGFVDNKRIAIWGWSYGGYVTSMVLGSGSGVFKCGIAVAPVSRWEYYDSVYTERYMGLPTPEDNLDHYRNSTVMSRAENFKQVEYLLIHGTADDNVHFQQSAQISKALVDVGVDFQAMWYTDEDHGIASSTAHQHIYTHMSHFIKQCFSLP

[2] = Selectivity ratio of IC50 for DPP4 over IC50 for DPP8
Dipeptidyl peptidase 8 = Dipeptidyl peptidase 8 (Homo sapiens, UniProt Q6V1X1); test: Inhibition of DPP8 assessed as […] release after 1 hr
Sequence of Dipeptidyl peptidase 8 (Q6V1X1 whole entry): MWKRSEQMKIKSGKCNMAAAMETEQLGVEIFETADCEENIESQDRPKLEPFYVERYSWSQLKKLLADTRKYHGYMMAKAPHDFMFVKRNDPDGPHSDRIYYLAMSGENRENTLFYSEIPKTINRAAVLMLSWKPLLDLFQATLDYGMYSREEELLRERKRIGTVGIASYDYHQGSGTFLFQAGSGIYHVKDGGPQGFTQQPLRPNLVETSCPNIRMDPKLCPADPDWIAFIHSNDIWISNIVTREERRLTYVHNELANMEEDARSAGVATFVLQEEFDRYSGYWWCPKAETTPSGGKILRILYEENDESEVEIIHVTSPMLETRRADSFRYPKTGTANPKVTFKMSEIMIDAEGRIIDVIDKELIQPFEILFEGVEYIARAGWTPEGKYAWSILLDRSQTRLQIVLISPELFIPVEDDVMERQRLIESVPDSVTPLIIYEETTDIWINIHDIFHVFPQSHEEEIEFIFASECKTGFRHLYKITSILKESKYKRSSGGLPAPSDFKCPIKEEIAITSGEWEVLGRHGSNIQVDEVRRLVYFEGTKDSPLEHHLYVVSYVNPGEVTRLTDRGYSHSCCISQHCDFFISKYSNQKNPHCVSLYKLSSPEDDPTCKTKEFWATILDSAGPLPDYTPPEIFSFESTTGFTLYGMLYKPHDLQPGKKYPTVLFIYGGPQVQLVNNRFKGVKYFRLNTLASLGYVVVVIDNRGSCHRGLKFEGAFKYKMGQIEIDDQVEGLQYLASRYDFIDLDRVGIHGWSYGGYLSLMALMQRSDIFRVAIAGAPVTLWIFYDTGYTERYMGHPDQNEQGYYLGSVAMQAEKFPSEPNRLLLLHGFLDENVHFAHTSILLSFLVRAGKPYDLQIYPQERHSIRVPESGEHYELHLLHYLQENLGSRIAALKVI

Dipeptidyl peptidase 4 [3] = target: T1, Dipeptidyl peptidase 4; test: Inhibition of DPP4 assessed as […] release after 1 hr

SMILES	inhibition (Dipeptidyl peptidase 4 [1])	further results
COc1ccc(CCc2cccc(N3C(=O)c4c(Cl)c(Cl)c(Cl)c(Cl)c4C3=O)c2)cc1OC	0%	–
O=C1c2c(Cl)c(Cl)c(Cl)c(Cl)c2C(=O)N1c1cccc(CCc2ccccc2)c1	26%	–
O=C1c2c(Cl)c(Cl)c(Cl)c(Cl)c2C(=O)N1c1ccccc1CCc1ccccc1	7%	–
O=C1c2c(Cl)c(Cl)c(Cl)c(Cl)c2C(=O)N1c1cccc(CCc2cccc(C(F)(F)F)c2)c1	87%	Ratio IC50 [2]: 10; IC50 (Dipeptidyl peptidase 8): > 30 µM; IC50 (Dipeptidyl peptidase 4 [3]): 3.1 µM; inhibition (Dipeptidyl peptidase 4 [3]): Active
O=C1c2c(Cl)c(Cl)c(Cl)c(Cl)c2C(=O)N1c1cccc(CCc2ccc(F)cc2)c1	20%	–
COc1ccc(CCc2cccc(N3C(=O)c4ccccc4C3=O)c2)cc1OC	0%	–
O=C1c2c(Cl)c(Cl)c(Cl)c(Cl)c2C(=O)N1c1ccccc1CCc1ccc(O)c(O)c1	12%	–
O=C1c2c(Cl)c(Cl)c(Cl)c(Cl)c2C(=O)N1c1ccc(CCc2ccc(O)c(O)c2)cc1	11%	–
Cc1ccc(CCc2cccc(N3C(=O)c4c(Cl)c(Cl)c(Cl)c(Cl)c4C3=O)c2)cc1	25%	–
COc1ccc(CCc2ccc(N3C(=O)c4ccccc4C3=O)cc2)cc1OC	0%	–
O=C1c2ccccc2C(=O)N1c1ccccc1CCc1ccc(O)c(O)c1	4%	–
O=C1c2ccccc2C(=O)N1c1ccc(CCc2ccc(O)c(O)c2)cc1	7%	–
O=C1c2ccccc2C(=O)N1c1ccc(CCc2ccccc2)cc1	6%	–
O=C1c2ccccc2C(=O)N1c1cccc(CCc2ccccc2)c1	2%	–
O=C1c2c(Cl)c(Cl)c(Cl)c(Cl)c2C(=O)N1c1ccc(CCc2ccccc2)cc1	12%	–
COc1ccc(CCc2ccc(N3C(=O)c4c(Cl)c(Cl)c(Cl)c(Cl)c4C3=O)cc2)cc1OC	3%	–
O=C1c2c(Cl)c(Cl)c(Cl)c(Cl)c2C(=O)N1c1cccc(CCc2c(F)c(F)c(F)c(F)c2F)c1	19%	–
O=C1c2ccccc2C(=O)N1c1ccccc1CCc1ccccc1	0%	–
O=C1c2c(Cl)c(Cl)c(Cl)c(Cl)c2C(=O)N1c1cccc(CCc2ccc(O)c(O)c2)c1	5%	–
COc1ccc(CCc2ccccc2N2C(=O)c3ccccc3C2=O)cc1OC	0%	–
O=C1c2ccccc2C(=O)N1c1cccc(CCc2ccc(O)c(O)c2)c1	7%	–
O=C1c2c(Cl)c(Cl)c(Cl)c(Cl)c2C(=O)N1c1cccc(CCc2ccccc2C(F)(F)F)c1	86%	IC50 (Dipeptidyl peptidase 4 [3]): 4 µM; inhibition (Dipeptidyl peptidase 4 [3]): Active
COc1ccc(CCc2ccccc2N2C(=O)c3c(Cl)c(Cl)c(Cl)c(Cl)c3C2=O)cc1OC	2%	–
O=C1c2c(Cl)c(Cl)c(Cl)c(Cl)c2C(=O)N1c1cccc(CCc2ccc(C(F)(F)F)cc2)c1	38%	–
